Where “and” joins values, the source holds several entries; their conditions need not be identical. Equal entries are not always repeated.
Assays:
Format in all cases: cell-based
[1] = tested on: HeLa cells; assay: Centrosome number / multipolar phenotype in synchronized HeLa cells expressing mCherry-CaM; details: 2 h; calmidazolium 20 μM, 1 50 μM, with MG132 10 μM
Description: To evaluate the effect of compounds on centrosome numbers during mitosis, HeLa cells were seeded in 6-well plates onto sterile coverslips and cotransfected with 0.5 μg of pmCherry-CaM and 1.5 μg pEGFP-Centrin1 plasmids using 4 μl of jetPRIME. Twenty-four hours after the transfection, cells were synchronized with 60 ng/ml of nocodazole for 16 h. After the removal of nocodazole, the cells were treated with the […] MG132 (10 μM) to block the cells in metaphase and either calmidazolium (20 μM), 1 (50 μM), or DMSO (0.5%) for 2 h. Cells were then fixed with 4% paraformaldehyde in PBS for 10 min at ambient temperature. After washing with PBS-Tween 0.05%, DNA was stained with a 1 μg/ml solution of DAPI diluted in PBS for 10 min. Coverslips were mounted on glass slides using Vectashield, and images were captured on a spinning disk confocal microscope. Images were analyzed with the ImageJ software, and the number of transfected mitotic cells with multipolar and normal bipolar phenotypes was counted (between 35 and 70 cells per test condition). The percentage multipolar vs. bipolar cells was computed to generate the plot using the Prism software.

[2] = tested on: NCI-H358, MIA PaCa-2, MDA-MB-231 and A375 3D spheroids; assay: 3D spheroid growth benchmarking, DSS3, alamarBlue
Description: 3D spheroid formation assays were performed in 96-well low-attachment, suspension culture plates (cat. no. 655185, Cellstar, Greiner Bio-One) under serum-free condition. About 1,000 (MDA-MB-231, NCI-H358, and MIA PaCa-2) or 2,500 (Hs 578T) cells per well were seeded in 50 μl of either an RPMI medium (cat. no. 52400-025, Gibco, Thermo Fisher Scientific) (MDA-MB-231, A375, and NCI-H358) or DMEM (cat. no. 41965-039, Gibco, Thermo Fisher Scientific) (Hs 578T and MIA PaCa-2), containing 0.5% MethoCult (cat. no. SF H4636, Stemcell technologies), 1x B27 (cat. no. 17504044, Gibco, Thermo Fisher Scientific), 25 ng/ml EGF (cat. no. E9644, Sigma-Aldrich), and 25 ng/ml FGF (cat. no. RP-8628, Thermo Fisher Scientific). Cells were cultured for 3 days and then treated with compounds or vehicle control (DMSO 0.1% v/v in growth medium) for another 3 days. The cells were supplemented with a fresh growth medium on the third day together with the drug treatment. For knockdown experiments, cells were seeded in 12-well plates and treated with either 50 nM scrambled siRNA (cat. no. 1022076, QIAGEN) or indicated concentrations of siRNAs. Next day, cells were collected by trypsinization and re-plated into 96-well plates for 3D spheroid suspension culture.
Spheroid formation efficiency was analyzed by an alamarBlue assay reagent (cat. no. DAL1100, Thermo Fisher Scientific). A 10% final volume of the alamarBlue reagent was added to each well of the plate and incubated for 4 h at 37°C. Then the fluorescence intensity was measured using the FLUOstar OPTIMA plate reader (BMG Labtech, Germany) with an excitation wavelength of 560 ± 5 nm and an emission wavelength of 590 ± 5 nm.
(§1) To quantitatively profile the drug sensitivity with a more robust parameter than the IC50 or EC50 values, the drug sensitivity score (DSS) analysis was employed. DSS values are essentially normalized area under the curve (AUC) measures of dose-response inhibition data ([Yadav et al., 2014]). Drug response data files (in Excel) ready for online analysis were prepared according to the example file obtained from the DSS pipeline website, called Breeze^1 ([Potdar et al., 2020]). Either raw fluorescence intensity measurements or normalized % inhibition data (for BRET assay analysis) were uploaded.
(§2) DSS3 was employed to emphasize drugs that obtain their response area over a relatively wide dose window, as compared to drugs that show increased response only at the higher end of the concentration range. After logistic fitting of the dose-response inhibition data, the area under the curve (AUC) was determined as the exact solution. A 10% minimal activity threshold (t) was set. The maximum (Cmax) and minimum (Cmin) concentrations were used for screening of the inhibitors, with Cmax = x2 and x1 concentration with minimal activity t.

[3] = tested on: HRAS mutant cells (Hs 578T, T24); assay: 2D viability assay (alamarBlue), DSS3; details: relative to OphA; listed as Calmirasone1
Description: as §1
as §2, with “activity t. […]” for “activity t.”

CC(C)c1ccc2cc(C(F)(F)F)c(=O)c3c(N4CCCCC4)c(C=O)c(c1)c23 [Compound 1]
multipolar phenotype (multiple mCherry-CaM-positive centrosomes) [1]: significantly pronounced | DSS3 potency relative to K-RasG12C inhibitor AMG-510 in 3D spheroid assays ([2]; relative to AMG-510): ~50% | effect on 3D spheroid growth ([2]; spheroids grown 72 h then treated 72 h): visibly lower activity | lower unspecific toxic effect on HRAS mutant cells as compared to OphA [3]: > 40 fold and 40–260 fold

— publication PMC8296985, “A Covalent Calmodulin Inhibitor as a Tool to Study Cellular Mechanisms of K-Ras-Driven Stemness” (Frontiers in Cell and Developmental Biology, 2021)
